The record followed here is patent US20130172407A1, “Inhibition of Cancer Cell Proliferation Using Oleoylethanolamide” (China Medical University, priority 2011, published 2013).

Type in all cases: cell-based, Human
Test [1] deals with HT-29 cells. As to the kind of experiment: MTT cell viability analysis, HT-29 cells. The following applies: 24 hours, OEA 50, 100, 200 μM and lycopene 2, 5 μM compared to control group, synergy groups (200 μM OEA + 2 or 5 μM lycopene) compared to OEA group 3 and lycopene groups 1 and 2, FIG. 1. Here is the method: (§1) HT-29 cells were cultured in a 75-cm^2 flask containing McCoy's medium (Invitrogen Inc., Carlsbad, Calif., USA) supplemented with 10% Fetal Bovine Serum (FBS), 2 mM glutamine and 1.5 g/L sodium bicarbonate. The remaining cells were cultured in a 75-cm^2 flask containing RPMI 1640 medium (Hyclone, Grand Island, N.Y., USA) supplemented with 10% Fetal Bovine Serum (FBS), 2 mM glutamine and 1.5 g/L sodium bicarbonate. These cells were cultured in an incubator with culture conditions set at 37° C. and 5% CO2. […]
(§2) • {3-[4,5-Dimethylthiazol-2-yl]-2,5-diphenyltetrazolium bromide} (MTT, 0.5 mg/mL, 200 μL) was added to the cell culture of each group, followed by incubation in an incubator (37° C., 5% CO2) for 2 hours. […] The absorbance at 570 nm (OD570) for each well was detected using a microplate reader (Tecan Inc., Mannedorf, Switzerland).
(§3) Cell viability percentage (%) was calculated by substituting the detected absorbance (OD570) to the following formula (1):
(§4) A=(B/C)×100 Formula (1): • wherein: • A=cell viability percentage (%) • B=the detected OD570 absorbance of each group • C=the detected OD570 absorbance of control group

For test [2], the system named is HCT 116 cells. As to the kind of experiment: MTT cell viability analysis, HCT 116 cells. As to conditions: 24 hours, OEA 50, 100, 200 μM and lycopene 2, 5 μM compared to control group, synergy groups (200 μM OEA + 2 or 5 μM lycopene) compared to OEA group 3 and lycopene groups 1 and 2, FIG. 2. Here is the method:
as §1, §2, §3, §4

The subject of test [3] is SW-480 cells. Kind of test: MTT cell viability analysis, SW-480 cells. As to conditions: 24 hours, OEA 50, 100, 200 μM and lycopene 2, 5 μM compared to control group, synergy groups (200 μM OEA + 2 or 5 μM lycopene) compared to OEA group 3 and lycopene groups 1 and 2, FIG. 3. Here is the method:
as §1, §2, §3, §4

The subject of test [4] is A549 cells. As to the kind of experiment: MTT cell viability analysis, A549 cells. The following applies: 24 hours, OEA 50, 100, 200 μM and lycopene 2, 5 μM compared to control group, synergy groups (200 μM OEA + 2 or 5 μM lycopene) compared to OEA group 3 and lycopene groups 1 and 2, FIG. 4. Here is the method: as §1, §2, §3, §4
For test [5], the system named is MDA-MB-231 cells. Kind of test: MTT cell viability analysis, MDA-MB-231 cells. The following applies: 24 hours, OEA 50, 100, 200 μM and lycopene 2, 5 μM compared to control group, synergy groups (200 μM OEA + 2 or 5 μM lycopene) compared to OEA group 3 and lycopene groups 1 and 2, FIG. 5. Here is the method:
as §1, §2, §3, §4

Test [6] relates to Huh-7 cells. As to the kind of experiment: MTT cell viability analysis, Huh-7 cells. The following applies: 24 hours, OEA 50, 100, 200 μM and lycopene 2, 5 μM compared to control group, synergy groups (200 μM OEA + 2 or 5 μM lycopene) compared to OEA group 3 and lycopene groups 1 and 2, FIG. 6. Here is the method: as §1, §2, §3, §4
Test [7] deals with CAL 27 cells. As to the kind of experiment: MTT cell viability analysis, CAL 27 cells. As to conditions: 24 hours, OEA 50, 100, 200 μM and lycopene 2, 5 μM compared to control group, synergy groups (200 μM OEA + 2 or 5 μM lycopene) compared to OEA group 3 and lycopene groups 1 and 2, FIG. 7. Here is the method: as §1, §2, §3, §4
Test [8] has as its system AGS cells. Kind of test: MTT cell viability analysis, AGS cells. The following applies: 24 hours, OEA 50, 100, 200 μM and lycopene 2, 5 μM compared to control group, synergy groups (200 μM OEA + 2 or 5 μM lycopene) compared to OEA group 3 and lycopene groups 1 and 2, FIG. 8. Here is the method:
as §1, §2, §3, §4

Test [9] has as its system HT-29 cells. As to the kind of experiment: Flow cytometry cell cycle analysis (PI staining, Sub-G1 phase). The following applies: 24 hours, OEA 50, 100, 200 μM, lycopene 2, 5 μM, synergy groups (200 μM OEA + 2 or 5 μM lycopene) compared to OEA groups 1-3 and lycopene groups 1 and 2, FIG. 9. Here is the method:
In order to understand the effect of OEA and its combination with lycopene on the cell cycle and proliferation of human colorectal cancer cell line HT-29, HT-29 cell culture treated with different solutions obtained from Item B of Example 2 was used for the following experiments.
Each group of the HT-29 cell culture obtained from Item B of Example 2 was washed with PBS twice followed by fixing the cells with 70% (w/v) cold ethanol for 1 hour. Then, the obtained fixed cells were washed with cold PBS followed by centrifugation at 300 g for 5 minutes. […]
Subsequently, the obtained dyed cells were subjected to cell cycle analysis using BD FACSCanto™ flow cytometer (BD Biosciences, Cat. No. 338960), and the DNA content of 1×10^4 cells was analyzed in each analysis. The cells would emit fluorescence when excited by laser beam of argon ion at 488 nm. Cell cycle profile was analyzed from DNA content histograms using BD FACSDiVa™ software (Becton Dickinson, Cat. No. 643629). […] The percentage of the cells in Sub-G1 phase was analyzed using ModFit LT software.
The obtained experimental data was analyzed according to the method described in “Statistical Analysis” in the section of “General experimental procedure”.
Background: In flow cytometry, cells or beads pass a laser one at a time.

The subject of test [10] is cyclin D1. As to the kind of experiment: Western Blotting analysis of nuclear protein, cyclin D1 expression in HT-29 cells. The following applies: HT-29 nuclear protein; OEA 200 μM, lycopene 2 and 5 μM compared to control group; synergy groups compared to OEA group 3 and lycopene groups 1 and 2; FIG. 10. Here is the method:
(§5) In order to detect the protein expression of HT-29 cells, the HT-29 cell culture treated with different solutions for use in the instant experiment was obtained substantially according to “B. Treatment of various cancer cell lines with OEA solutions, lycopene solutions and combined solutions” in the above Example 2. The difference was that the cells of each group were cultured in a culture dish having a diameter of 10 cm. Experimental groups were added with different solutions according to those shown in Table 3 and the amount added was 10 mL.
(§6) Then, the HT-29 cell cultures of the control group, OEA group 3, lycopene groups 1 and 2 and synergy groups 1 and 2 were washed with PBS twice followed by adding 75 μL lysis buffer (containing PBS, 1% Ipegal CA-630 (Sigma, St. Louis, Mo.), 0.5% sodium deoxycholate, 0.1% SDS, 100 μM phenylmethylsulfonyl fluoride, 20 μg/mL aprotinin, 1 mM PMSF and 3 μM sodium orthovanadate) and uniformly mixing. The resultant cell mixtures were subjected to nuclear protein extraction using NE-PER® Nuclear and Cytoplasmic Extraction Reagents (Thermo Scientific, Cat. No. 78833) according to the manufacturer's operation guide, thereby obtaining nuclear protein samples. […]

Test [11] has as its system p-NF-κB p65. Kind of test: Western Blotting analysis of nuclear protein, p-NF-κB p65 expression in HT-29 cells. As to conditions: HT-29 nuclear protein; OEA 200 μM, lycopene 2 and 5 μM compared to control group; synergy groups compared to OEA group 3 and lycopene groups 1 and 2; FIG. 10. Here is the method: as §5, §6
(A western blot detects proteins with antibodies after separation by electrophoresis.)

Test [12] has as its system HT-29 cells. Kind of test: FITC Annexin V / PI flow cytometry, cell death (apoptosis). The following applies: FITC Annexin V and PI positive, OEA 200 μM and lycopene 5 μM compared to control group, synergy groups compared to OEA group 3 and lycopene group 2, FIG. 11. Here is the method: In order to further investigate the usefulness of OEA and its combination with lycopene in inducing cell apoptosis of human colorectal cancer cell line HT-29, HT-29 cell cultures of control group, OEA group 3, lycopene groups 1 and 2 and synergy groups 1 and 2 obtained according to the above Item B in Example 2 were used for subsequent experiments.
First, the cell culture of each group was collected and washed with cold PBS twice followed by centrifugation at 300 g for 5 minutes. The supernatant was removed and 1× Annexin V Binding Buffer (BD Pharmingen™) was added to sufficiently re-suspend the cell pellet thereby obtaining a cell suspension having a cell concentration of 1×10^5 cells/mL. […]
Then, the stained cells were analyzed using BD FACSAria™ flow cytometry, wherein cells stained with FITC Annexin V and PI, i.e., FITC Annexin V positive and PI positive, represent cells that were induced with apoptosis and died, while cells that could not be stained with FITC Annexin V and PI, i.e., FITC Annexin V negative and PI negative, represent viable cells. The number of cells stained with FITC Annexin V and PI was calculated using BD FACSDiVa™ software.
The cell death percentage (%) of each group was calculated by substituting the detected cell number to the following formula (2): […]

As to `CC(C)=CCC/C(C)=C/C=C/C(C)=C/C=C/C(C)=C/C=C/C=C(C)/C=C/C=C(C)/C=C/C=C(\C)CCC=C(C)C` [lycopene], the cell viability percentage entry in test [1], in [2], in test [3], in test [4], in [5] and in [6] was “reduced” each time. For the same compound, the cell viability percentage result in [7] and in [8] was “reduced” each time. In addition, the “percentage of HT-29 cells in Sub-G1 phase” value in test [9] was “promote HT-29 cells to be in Sub-G1 phase”. The “amount of cyclin D1 expression” value in test [10] is listed as “reduced”. The “amount of p-NF-κB p65 expression” value in [11] is reported as “reduced”. Also, the cell death percentage entry in test [12] is “elevated”.
`CCCCCCCC/C=C\CCCCCCCC(=O)NCCO` [OEA, oleoylethanolamide]: the cell viability percentage entry in test [1], in test [2], in [3], in [4], in test [5] and in test [6] was “reduced” in each case. Besides, the cell viability percentage entry in [7] and in [8] was “reduced” each time. In test [9], the “percentage of HT-29 cells in Sub-G1 phase” value is “promote HT-29 cells to be in Sub-G1 phase”. In addition, the “amount of cyclin D1 expression” value in [10] is “reduced”. Moreover, the “amount of p-NF-κB p65 expression” value in test [11] is given as “reduced”. Besides, in [12], the cell death percentage result is “elevated”.
